Reference: US20090233957A1, “(-)-BELOXEPIN AND METHODS FOR ITS SYNTHESIS AND USE” (priority 2008, published 2009)

What was measured:
[1] = target: T1, cloned human NE transporter (hNET) (Homo sapiens, UniProt P23975); assay: NE transporter binding assay, [3H]nisoxetine
T1 construct: expressed in transfected cells; host or cells: CHO cells
Method: Protocols. For the NE transporter binding assay, [^3H]nisoxetine (1.0 nM) was incubated with various concentrations of test compounds for 2 hours at 4° C. with membranes prepared from Chinese hamster ovary cells (CHO) cells heterologously expressing the cloned human NE transporter (hNET). Bound radioactivity was determined by scintillation spectroscopy.

[2] = target: T2, cloned human 5HT2A receptor (Homo sapiens, UniProt P28223); assay: 5HT2A receptor binding assay, [3H]ketanserin; conditions: HEK-293 membranes
T2 construct: expressed in transfected cells; host or cells: HEK-293 cells
Method: For the 5HT2A receptor binding assay, [^3H]ketanserin (0.5 nM) was incubated for 60 min at 22° C. with membranes prepared from HEK-293 cells heterologously expressing the cloned human 5-HT2A receptor according to the method of Bonhaus et al., 1995, Brit. J. Pharmacol. 115:622-628. Various concentrations of test compound were added and bound radioactivity was determined by scintillation counting. Non-specific binding was determined in the presence of 1.0 μM unlabeled ketanserin. The Ki value for the test compound was determined using standard methods.

[3] = target: T3, cloned human 5HT2B receptor (Homo sapiens, UniProt P41595); assay: 5HT2B receptor binding assay, [125I]DOI; conditions: CHO membranes
T3 construct: expressed in transfected cells; host or cells: CHO cells
Method: For the 5HT2B receptor binding assay, [^125I](±)[…] (DOI) (0.2 nM) was incubated for 15 min at 37° C. with membranes prepared from Chinese hamster ovary cells heterologously expressing the cloned human 5HT2B receptor according to the method of Choi et al., 1994, FEBS Lett 352:393-399. Various concentrations of test compound were added and bound radioactivity was determined by scintillation counting. Non-specific binding was determined in the presence of 1.0 μM unlabeled DOI. The Ki value for the test compound was determined using standard methods.

[4] = target: T4, cloned human 5HT2C receptor (Homo sapiens, UniProt P28335); assay: 5HT2C receptor binding assay, [3H]mesulergine; conditions: CHO membranes
T4 construct: expressed in transfected cells; host or cells: CHO cells
T4 sequence (P28335 33-458): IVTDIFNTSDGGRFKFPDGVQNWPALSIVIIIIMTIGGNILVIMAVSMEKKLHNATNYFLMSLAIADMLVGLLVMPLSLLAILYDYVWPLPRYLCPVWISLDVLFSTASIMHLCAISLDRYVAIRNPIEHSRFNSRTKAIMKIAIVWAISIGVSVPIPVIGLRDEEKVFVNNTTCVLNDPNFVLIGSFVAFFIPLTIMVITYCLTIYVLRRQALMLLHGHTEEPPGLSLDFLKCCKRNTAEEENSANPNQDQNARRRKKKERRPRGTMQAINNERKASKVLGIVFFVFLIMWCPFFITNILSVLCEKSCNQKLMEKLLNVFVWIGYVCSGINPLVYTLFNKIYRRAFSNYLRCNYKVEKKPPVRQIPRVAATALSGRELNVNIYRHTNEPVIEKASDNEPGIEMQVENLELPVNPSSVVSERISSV
Method: For the 5HT2C receptor binding assay, [^3H]mesulergine (1.0 nM) was incubated for 60 min at 37° C. with membranes prepared from Chinese hamster ovary cells heterologously expressing the cloned human 5-HT2C receptor according to the method of Stam et al., 1994, Eur. J. Pharmacol. 269:339-348. Various concentrations of test compound were added and bound radioactivity was determined by scintillation counting. Non-specific binding was determined in the presence of 10 μM RS102221. The Ki value for the test compound was determined using standard methods.

human recombinant CYP2D6 = target: T5, human recombinant CYP2D6 (Homo sapiens, UniProt P10635); assay: CYP2D6 inhibition, MAMC substrate; type: in vitro ADME
T5 construct: purchased BD Bioscience
Method: Protocol. […] The source of the enzyme was microsomes containing human recombinant CYP2D6 obtained from BD Bioscience. Conversion of MAMC to 7-hydroxy-4-(aminomethyl)coumarin was measured using a PerkinElmer Fusion with a 390 nm excitation filter and a 460 nm emission filter.

L5 SNL rats = assay: L5 Single Nerve Ligation model of neuropathic pain, tactile allodynia (von Frey); type: in vivo, rat
Method: Protocol. The antiallodynic activity of (−)-beloxepin was tested in vivo using the L5—Single Nerve Ligation model of non-nociceptive neuropathic pain as described in LaBuda & Little, 2005, J. Neurosci. Methods 144:175-181. The test animals were placed in a Plexiglas chamber (10 cm×20 cm×25 cm) and habituated for 15 minutes. The chamber was positioned on top of a mesh screen so that von Frey monofilaments could be presented to the plantar surface of both hindpaws. Measurement of tactile sensitivity for each hind paw were obtained using the up/down method (Dixon, 1980, Annu. Rev. Pharmacol. Toxicol. 20:441-462) with seven Frey monofilaments (0.4, 1, 2, 4, 6, 8 and 15 grams). Each trial started with a von Frey force of 2 grams delivered to the right hind paw for approximately 1-2 seconds and then the left hind paw. If there was no withdrawal response, the next higher force was delivered. If there was a response, the next lower force was delivered. This procedure was performed until no response was made at the highest force (15 grams) or until four stimuli were administered following the initial response. The 50% paw withdrawal threshold for each paw was calculated using the following formula: [Xth]log=[vFr]log+ky, where [vFr] is the force of the last von Frey used, k=0.2249 which is the average interval (in log units) between the von Frey monofilaments, and y is a value that depends upon the pattern of withdrawal responses (Dixon, 1980, supra). […] Testing for tactile sensitivity was performed twice and the mean 50% withdrawal value assigned as the tactile sensitivity for the right and left paws for each animal.
Results. The antiallodynic effects produced by (−)-beloxepin (30 mg/kg IP) and (+)-beloxepin (30 mg/kg IP) in L5 SNL rats 8 days post surgery are illustrated in FIG. 1. In this experiment, at 8 days post surgery, rats were treated with vehicle or beloxepin enantiomers (30 mg/kg IP) and tested for tactile allodynia at 30 min post treatment. […] No side effects were observed following treatment with either enantiomer.
The antiallodynic effects produced by (−)-beloxepin (30 mg/kg IP) in L5 SNL rats 14 days post surgery are illustrated in FIG. 2. In this experiment, at 14 days post surgery, rats were treated with vehicle or (−)-beloxepin and tested for tactile allodynia at 30, 60, 120 and 240 min post treatment. Vehicle treated rats were tested at 30 min post treatment.
Protocol. A time course experiment was performed with (−)-beloxepin (60 mg/kg PO) in L5 SNL rats at 7 days post-surgery. Rats were tested at 30, 60, 120, and 240 minutes post-drug.
Protocol. A time course experiment was also performed with (+)-beloxepin (60 mg/kg PO) in L5 SNL rats at 14 days post-surgery. Rats were tested at 30, 60, 120, and 240 minutes post-drug.

[5] = tested on: rat hindpaw incision model; assay: rat hindpaw incisional pain model, tactile allodynia; type: in vivo; conditions: 30 mg/kg IP, 24 hours post-surgery
Method: Protocol. A time course experiment was also performed with (−)-beloxepin in the hindpaw incision model. At 24 hours post-surgery, rats received vehicle or (−)-beloxepin (30 mg/kg IP). Rats were tested for tactile allodynia at 30, 60, 120 and 240 minutes after administration of (−)-beloxepin.
Protocol. Another time course experiment was performed with (+)-beloxepin in the hindpaw incision model. At 24 hours post-surgery, rats received vehicle or (+)-beloxepin (30 mg/kg IP). Rats were tested for tactile allodynia at 30, 60, 120 and 240 minutes after administration of (+)-beloxepin.

[6] = tested on: rat 50° C. hot plate model; assay: rat 50° C. hot plate assay; type: in vivo; conditions: for level of antinociception, positive control: 3 mg/kg SC, 30 min
Method: Protocol. Rats were treated with vehicle, 30 mg/kg IP of (−)-beloxepin, or 30 mg/kg IP of (+)-beloxepin and then were placed on a hot plate (50° C.) 30, 60, or 120 minutes after administration of the vehicle or beloxepin enantiomer. Rats treated with 3 mg/kg SC of morphine and tested 30 min post-treatment were used as a positive control in these experiments.

[7] = tested on: pain intensity in study completers; conditions: cited from earlier work
[8] = 30 mg/kg IP, 8 days post surgery, 30 min post treatment

T1 sequence (P23975 whole entry): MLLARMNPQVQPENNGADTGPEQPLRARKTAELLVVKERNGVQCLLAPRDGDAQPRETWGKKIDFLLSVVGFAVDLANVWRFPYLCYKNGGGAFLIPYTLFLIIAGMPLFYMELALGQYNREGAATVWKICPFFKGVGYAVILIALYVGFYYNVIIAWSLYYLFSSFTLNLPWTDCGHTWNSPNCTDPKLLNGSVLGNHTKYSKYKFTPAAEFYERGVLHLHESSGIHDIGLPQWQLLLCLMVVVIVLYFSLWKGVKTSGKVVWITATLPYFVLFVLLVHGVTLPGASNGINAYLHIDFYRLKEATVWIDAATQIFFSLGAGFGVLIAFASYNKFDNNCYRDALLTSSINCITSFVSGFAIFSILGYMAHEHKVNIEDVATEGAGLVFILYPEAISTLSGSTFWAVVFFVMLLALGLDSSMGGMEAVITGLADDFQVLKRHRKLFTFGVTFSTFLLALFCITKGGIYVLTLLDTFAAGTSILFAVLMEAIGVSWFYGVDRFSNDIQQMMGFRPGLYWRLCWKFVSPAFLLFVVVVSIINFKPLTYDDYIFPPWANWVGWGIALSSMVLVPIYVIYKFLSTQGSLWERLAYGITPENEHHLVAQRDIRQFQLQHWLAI
T5 sequence (P10635 whole entry): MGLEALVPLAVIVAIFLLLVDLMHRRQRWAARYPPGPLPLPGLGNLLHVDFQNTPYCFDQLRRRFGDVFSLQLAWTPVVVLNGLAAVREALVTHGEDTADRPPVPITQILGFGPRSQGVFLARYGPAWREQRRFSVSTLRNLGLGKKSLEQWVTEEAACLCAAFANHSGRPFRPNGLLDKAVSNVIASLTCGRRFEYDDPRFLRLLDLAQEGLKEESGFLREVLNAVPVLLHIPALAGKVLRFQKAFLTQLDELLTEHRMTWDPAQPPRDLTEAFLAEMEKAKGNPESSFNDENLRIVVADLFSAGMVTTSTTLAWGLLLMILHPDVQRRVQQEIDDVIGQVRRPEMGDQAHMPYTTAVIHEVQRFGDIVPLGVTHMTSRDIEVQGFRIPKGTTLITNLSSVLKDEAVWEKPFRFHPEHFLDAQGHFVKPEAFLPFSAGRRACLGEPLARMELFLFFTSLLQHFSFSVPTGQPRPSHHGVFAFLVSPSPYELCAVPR
T2 sequence (P28223 whole entry): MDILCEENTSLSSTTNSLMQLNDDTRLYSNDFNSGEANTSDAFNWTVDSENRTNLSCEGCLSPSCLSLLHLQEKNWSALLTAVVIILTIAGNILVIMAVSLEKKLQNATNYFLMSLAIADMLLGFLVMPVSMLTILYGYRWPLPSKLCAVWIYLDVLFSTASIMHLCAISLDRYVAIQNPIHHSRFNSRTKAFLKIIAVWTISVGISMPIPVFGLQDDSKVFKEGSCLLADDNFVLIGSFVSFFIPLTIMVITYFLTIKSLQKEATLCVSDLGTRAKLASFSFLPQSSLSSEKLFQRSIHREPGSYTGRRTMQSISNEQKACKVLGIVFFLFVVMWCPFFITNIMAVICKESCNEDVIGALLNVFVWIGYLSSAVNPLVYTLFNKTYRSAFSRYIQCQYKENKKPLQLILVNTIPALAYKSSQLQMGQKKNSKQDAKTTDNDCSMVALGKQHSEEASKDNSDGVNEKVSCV
T3 sequence (P41595 whole entry): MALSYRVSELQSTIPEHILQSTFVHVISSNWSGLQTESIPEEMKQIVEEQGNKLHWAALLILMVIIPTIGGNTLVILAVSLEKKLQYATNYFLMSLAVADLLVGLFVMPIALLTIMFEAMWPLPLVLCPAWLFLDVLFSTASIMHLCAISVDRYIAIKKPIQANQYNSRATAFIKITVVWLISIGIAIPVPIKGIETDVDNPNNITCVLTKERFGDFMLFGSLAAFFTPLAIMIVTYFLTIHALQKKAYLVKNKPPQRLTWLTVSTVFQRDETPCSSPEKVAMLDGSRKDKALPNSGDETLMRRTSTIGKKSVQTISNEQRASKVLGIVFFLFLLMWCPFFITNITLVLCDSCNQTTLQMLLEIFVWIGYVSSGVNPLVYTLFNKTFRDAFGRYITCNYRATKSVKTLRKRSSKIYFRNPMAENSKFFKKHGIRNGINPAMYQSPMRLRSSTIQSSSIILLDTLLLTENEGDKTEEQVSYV

Cc1cccc2c1Oc1ccccc1C1(O)CCN(C)CC21 (single isomer, unassigned; (-)) [(−)-beloxepin]
higher affinity at the NET than the (+) enantiomer ([1]; (−) vs (+) enantiomer): approximately 8 fold
Ki ([1]; membranes of CHO cells expressing hNET, read-out: NET Ki): 390 nM
Ki [2]: > 10 µM
Ki [3]: > 10 µM
Ki [4]: > 10 µM
IC50 (human recombinant CYP2D6): 4.37 µM
antiallodynia, % of the threshold of vehicle-treated L5 SNL rats (L5 SNL rats; [8]): 444%
antiallodynic effect (L5 SNL rats; [8]): significant antiallodynia
maximal efficacy, % of the threshold of vehicle-treated rats (L5 SNL rats; 30 mg/kg IP, 14 days post surgery): 635%
antiallodynic effect (L5 SNL rats; 30 mg/kg IP, 14 days post surgery, tested 30, 60, 120, 240 min): significant antiallodynic effects at the 30 and 60 min time points
antiallodynic effect (L5 SNL rats; 60 mg/kg PO, 7 days post-surgery, tested 30, 60, 120, 240 min): significant antiallodynic effects at the 60 and 120 minute time points
hindpaw withdrawal threshold, % of the threshold value for vehicle treated rats ([5]; 30 minute time point): 426%
maximum hindpaw withdrawal threshold ([5]; 30 minute time point): ~19 grams
antiallodynic effect ([5]; tested 30, 60, 120, 240 min): significant antiallodynic effect at the 30 and 120 minute time point
antinociceptive activity ([6]; 30 mg/kg IP, 30, 60, 120 min): robust antinociceptive activity at 30, 60, and 120 minutes after treatment
peak antinociception ([6]; 30 mg/kg IP, 30 min post-treatment): 79±10 % MPE

CNCCCC12CCC(c3ccccc31)c1ccccc12 [maprotiline]
reduction in pain intensity [7]: 45%

CN1CC[C@]23c4c5ccc(O)c4O[C@H]2[C@@H](O)C=C[C@H]3[C@H]1C5 [morphine, reference compound]
level of antinociception, positive control ([6]; 'in these experiments'): 61±7 % MPE
level of antinociception, positive control ([6]; (+)-beloxepin experiment (FIG. 8)): 85±7 % MPE
level of antinociception, positive control ([6]; (−)-beloxepin experiment (FIG. 7)): 65±11 % MPE

Fc1ccc([C@@H]2CCNC[C@H]2COc2ccc3c(c2)OCO3)cc1 [paroxetine]
reduction in pain intensity [7]: 26%
